Data: the supplement of paper PMC8443649
± gives the standard deviation of the averaged measurements.

Test system: PATU8988T-SmBKRAS-LgBCRAF
Experiment: KRAS:CRAF interaction luminescence (EndoBind) relative to DMSO control (fold of DMSO); higher = more KRAS-CRAF complex
Method: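 EndoBind assay: PATU8988T cells with CRISPR knock-in SmB-KRAS(G12V) and LgB-CRAF, seeded with RealTime-Glo pro-substrate (1:2000) in 384-well plates. Cells were treated with RAF inhibitors (GDC0879, LY3009120, NVP-LHS533) or the MEK inhibitor Selumetinib, and the same plate was read for split-NanoLuc luminescence at several time points. Signal is normalised to the DMSO-treated wells at each time point; n=3 wells.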

Cn1cnc2c(F)c(Nc3ccc(Br)cc3Cl)c(C(=O)NOCCO)cc21 [Selumetinib]
KRAS:CRAF interaction luminescence
Details | time after treatment 0 h | time after treatment 1 h | time after treatment 4 h | time after treatment 6 h | time after treatment 9 h | time after treatment 12 h
0.00375 µM | 0.968 ± 0.07 | 0.983 ± 0.066 | 0.958 ± 0.032 | 0.954 ± 0.037 | 0.937 ± 0.023 | 0.963 ± 0.028
0.0075 µM | 0.975 ± 0.058 | 0.977 ± 0.067 | 0.949 ± 0.036 | 0.931 ± 0.021 | 0.943 ± 0.042 | 0.974 ± 0.051
0.015 µM | 1.01 ± 0.029 | 0.979 ± 0.075 | 0.958 ± 0.031 | 0.953 ± 0.018 | 0.939 ± 0.043 | 0.934 ± 0.037
0.03 µM | 0.961 ± 0.069 | 0.971 ± 0.072 | 0.973 ± 0.017 | 0.97 ± 0.028 | 0.956 ± 0.036 | 0.965 ± 0.03
0.06 µM | 0.995 ± 0.049 | 0.976 ± 0.069 | 0.976 ± 0.018 | 0.935 ± 0.025 | 0.945 ± 0.03 | 0.984 ± 0.013
0.12 µM | 0.994 ± 0.057 | 0.979 ± 0.064 | 0.974 ± 0.013 | 0.975 ± 0.025 | 0.948 ± 0.04 | 0.973 ± 0.031
0.24 µM | 0.994 ± 0.029 | 0.993 ± 0.07 | 0.988 ± 0.018 | 0.975 ± 0.023 | 0.96 ± 0.037 | 0.963 ± 0.04
0.46875 µM | 1 ± 0.043 | 0.995 ± 0.069 | 1 ± 0.02 | 0.985 ± 0.031 | 0.982 ± 0.017 | 0.992 ± 0.028
0.9375 µM | 1.01 ± 0.045 | 1.04 ± 0.071 | 1.02 ± 0.025 | 1.03 ± 0.035 | 0.994 ± 0.027 | 1.01 ± 0.043
1.875 µM | 0.978 ± 0.05 | 1.07 ± 0.084 | 1.06 ± 0.029 | 1.06 ± 0.043 | 1.04 ± 0.048 | 1.06 ± 0.068
3.75 µM | 0.99 ± 0.061 | 1.14 ± 0.099 | 1.12 ± 0.013 | 1.1 ± 0.031 | 1.1 ± 0.03 | 1.11 ± 0.063
7.5 µM | 1.01 ± 0.11 | 1.02 ± 0.12 | 1 ± 0.032 | 0.995 ± 0.034 | 0.981 ± 0.033 | 0.998 ± 0.035
15 µM | 1.02 ± 0.059 | 1.02 ± 0.1 | 1 ± 0.02 | 0.983 ± 0.032 | 0.974 ± 0.024 | 0.987 ± 0.043
30 µM | – | – | 0.953 ± 0.019 | – | – | –

CNc1ncc2cc(-c3cc(NC(=O)NCCC(C)(C)C)c(F)cc3C)c(C)nc2n1
KRAS:CRAF interaction luminescence
Details | time after treatment 0 h | time after treatment 1 h | time after treatment 4 h | time after treatment 6 h | time after treatment 9 h | time after treatment 12 h
0.00375 µM | 0.987 ± 0.034 | 0.979 ± 0.063 | 1.01 ± 0.04 | 1.05 ± 0.021 | 1.09 ± 0.011 | 1.15 ± 0.03
0.0075 µM | 0.976 ± 0.044 | 0.98 ± 0.073 | 1.04 ± 0.044 | 1.1 ± 0.045 | 1.15 ± 0.035 | 1.24 ± 0.066
0.015 µM | 0.996 ± 0.025 | 0.98 ± 0.041 | 1.07 ± 0.038 | 1.16 ± 0.035 | 1.22 ± 0.035 | 1.32 ± 0.034
0.03 µM | 0.983 ± 0.043 | 0.968 ± 0.031 | 1.14 ± 0.029 | 1.24 ± 0.022 | 1.35 ± 0.016 | 1.45 ± 0.04
0.06 µM | 1 ± 0.017 | 0.994 ± 0.032 | 1.21 ± 0.06 | 1.34 ± 0.029 | 1.46 ± 0.031 | 1.58 ± 0.051
0.12 µM | 1 ± 0.013 | 0.996 ± 0.027 | 1.26 ± 0.019 | 1.42 ± 0.02 | 1.58 ± 0.049 | 1.7 ± 0.058
0.24 µM | 0.955 ± 0.037 | 0.991 ± 0.049 | 1.35 ± 0.049 | 1.57 ± 0.039 | 1.76 ± 0.044 | 1.96 ± 0.073
0.46875 µM | 0.987 ± 0.03 | 1.03 ± 0.045 | 1.42 ± 0.05 | 1.67 ± 0.077 | 1.84 ± 0.079 | 2.05 ± 0.074
0.9375 µM | 0.982 ± 0.039 | 1.06 ± 0.033 | 1.51 ± 0.031 | 1.75 ± 0.075 | 1.91 ± 0.06 | 2.07 ± 0.097
1.875 µM | 1 ± 0.039 | 1.09 ± 0.053 | 1.54 ± 0.043 | 1.8 ± 0.05 | 1.91 ± 0.049 | 2.07 ± 0.087
3.75 µM | 0.971 ± 0.057 | 1.08 ± 0.068 | 1.59 ± 0.058 | 1.77 ± 0.048 | 1.89 ± 0.093 | 2.04 ± 0.11
7.5 µM | 1.03 ± 0.021 | 1.16 ± 0.088 | 1.57 ± 0.016 | 1.74 ± 0.052 | 1.8 ± 0.053 | 1.92 ± 0.043
15 µM | 1.03 ± 0.032 | 1.14 ± 0.094 | 1.47 ± 0.031 | 1.59 ± 0.037 | 1.62 ± 0.045 | 1.78 ± 0.071
30 µM | – | – | 1.13 ± 0.019 | – | – | –
